Assay results published in paper PMC7689089, “Regorafenib combined with PD1 blockade increases CD8 T-cell infiltration by inducing CXCL10 expression in hepatocellular carcinoma” (Journal for Immunotherapy of Cancer, 2020).

Assays:
[1] = test system: CXCL10; assay: CXCL10/CXCR3 expression in RIL-175 tumor tissue (RNA-seq, ELISA, RNA-Scope ISH, western blot); assay type: in vivo, mouse; conditions: regorafenib alone at 10 mg/kg and 20 mg/kg; 6 hours after treatment
Experimental: The RNA-Scope assay was performed according to manufacturer’s instructions.[32] Briefly, formaldehyde-fixed and paraffin-embedded human and mouse HCC tissue blocks were cut in 5 µm sections, pretreated for 30 min, following digestion and hybridization at 40°C in a HybEZ oven with both dual labeling probes antimurine CXCR3 probe (Mm-CXCR3; 402511-C2) and CXCL10 (Mm-CXCL10; 408921) or human CXCL10 (Hs-CXCL10; 311851), all from Advanced Cell Diagnostics. Counterstaining was performed using hematoxylin for 10 s.
(§1) (A) Changes induced by combination of regorafenib (10 mg/kg) with anti-PD1 antibody in immune-related pathways from the gene set enrichment analysis (GSEA) using curated gene sets in RIL-175 HCC model (see also online supplemental dataset S1 and figure S2E). (B, C) Changes induced by combination of regorafenib (10 mg/kg) with anti-PD1 antibody in STAT3 and STAT1 activity (B), showing an increased ratio of phosphorylated (p)-STAT1/p-STAT3 (normalized to total STAT1 and STAT3, respectively) by western blot analysis of whole RIL-175 HCC tissue (C) (n=4 mice). […] (J, K) Combination therapy increases CXCL10 protein expression in whole RIL-175 tumor tissue 6 hours and 12 hours after in vivo when regorafenib treatment was used at doses of 10 mg/kg (R10) and 20 mg/kg (R20) (n=3) by western blot analysis (J); quantitative data of CXCL10/β-actin ratios are shown in (K). […]

[2] = test system: STAT3; assay: STAT1/STAT3 phosphorylation in RIL-175 HCC tissue; assay type: in vivo, mouse; conditions: samples of the PK study
Experimental: as §1, with “mice). (D) Treatment with regorafenib increases CXCL10 expression by RIL-175 HCC cells in vitro after 36 hours, in a dose-dependent manner (n=6). Culture medium alone was used as a negative control (NC).” for “mice).”
(§2) Flow cytometry analysis. […] After preparation, cells were suspended in 2ml of PBS with 2% BSA, then counted using a cell counting plate (Kova slide) (if the final concentration of cell exceeded 10^7 cells/ml, a dilution factor was applied). […]

[3] = test system: RIL-175 cells; assay: STAT1/STAT3 activity in RIL-175 cells in vitro (western blot); assay type: cell-based, mouse; conditions: 1 µM in vitro
Experimental: as §1, with “mice). (D) Treatment with regorafenib increases CXCL10 expression by RIL-175 HCC cells in vitro after 36 hours, in a dose-dependent manner (n=6). Culture medium alone was used as a negative control (NC).” for “mice).”
as §2

[4] = Pharmacokinetic analysis of regorafenib and metabolites in plasma and tumor tissue of mice with HCC and liver damage; conditions: n=4-5 mice
Experimental: From the orthotopic HCC and liver damage mouse models described above, blood samples were collected at 1, 4, 7 and 24 hours after once-daily oral administration of 5, 10 and 20 mg/kg regorafenib, respectively, for 5 days. Anti-PD1 antibody was given on days 1 and 4 with dose of 10 mg/kg by intraperitoneal injection. Blood samples were drawn from four to five animals per sampling time point. Regorafenib and its active metabolites M-2, M-4 and M-5 were analyzed in plasma samples using a validated bioanalytical liquid chromatography-tandem mass spectrometry.[25 33] Pharmacokinetic (PK) parameters were derived from the area under the plasma concentration versus time curve (AUC) using a non-compartmental analysis.
In addition, we evaluated PK parameters in HCC-bearing mice after regorafenib administration alone at doses of 5, 10 and 20 mg/kg or in combination with anti-PD1 therapy at the 10 mg/kg regorafenib dose for 5 days to achieve a steady state.

[5] = test system: RIL-175 HCC vasculature; assay: Tumor vessel and hypoxia immunofluorescence (CD31, α-SMA, CA-IX) in RIL-175 orthotopic HCC; assay type: in vivo, mouse; conditions: regorafenib 10 mg/kg; day 12; vs control
Experimental: Figure 1 Dose-dependent effects of regorafenib on vascular normalization when used in combination with programmed cell death protein 1 (PD1) blockade in RIL-175 hepatocellular carcinoma (HCC) model. (A, B) Mice with established (4–5 mm in diameter) HCCs were treated with anti-PD1 therapy (P) alone or in combination with 5 mg/kg (R5), 10 mg/kg (R10) or 20 mg/kg (R20) regorafenib versus control (C) (n=8 mice per group, 1-week treatment). We used immunofluorescence (IF) for evaluation of tumor vessels by CD31 and α-smooth muscle actin (α-SMA) immunostaining. […] Representative IF of tumor sections after staining for CD31 (for endothelial cells in green) and α-SMA (for pericytes in red) and DAPI counterstaining (in blue). Five random fields from the tumor center (defined as no inclusion of the edge of the tumor) were evaluated for each sample. Data represent mean values. Scale bars=500 µm. (C) Representative IF confocal microscopy images of tumor vessels using and CD31 staining (green) and tissue hypoxia using CA-IX staining (red) of whole liver sections; scale bars=2 mm. […] (E) Representative IF confocal microscopy images of mature tumor vessels using CD31 staining (green) and α-SMA staining (red) of RIL-175 tumors; scale bars, 100 µm.

CNC(=O)c1cc(Oc2ccc(NC(=O)Nc3ccc(Cl)c(C(F)(F)F)c3)c(F)c2)ccn1 [regorafenib]
CXCL10 protein in whole tumor tissue lysate (western blot) [1]: increased protein levels | Phosphorylated (p)STAT3 levels in HCC tissues [2]: inhibited | STAT1 and STAT3 activity (p-STAT1/p-STAT3) in RIL-175 cells [3]: STAT1 activation and STAT3 inhibition | Plasma maximum concentration (Cmax), R10 alone versus R10+P [4]: No difference | Hypoxic tissue area measured by CA-IX staining [5]: significantly decreased | MVD [5]: significant increase
